From paper PMC7083565, “In vitro metabolism, reaction phenotyping, enzyme kinetics, CYP inhibition and induction potential of ataluren” (Pharmacology Research & Perspectives, 2020) come the findings set out here.

What all share (type): in vitro ADME
Series [1] in a line: Plasma protein binding (ultrafiltration), human. How it is done:
[^14C]‐Ataluren, at 50, 500, 5000, and 50 000 ng/mL or 0.175, 1.75, 17.5, and 175 µM, in male mouse, rat, dog, monkey, and human plasma, was incubated (n = 3) at 37°C for approximately 15 minutes, transferred into Centrifree® Micropartition Units (30 000 Da molecular weight cutoff, 1 mL capacity; Amicon Inc), and centrifuged at 37°C and 2000 g for approximately 10 minutes so that the amount of the sample filtered was approximately ≤ 20% of the total volume. After centrifugation, the entire ultrafiltrate was weighed and analyzed for radioactivity using liquid scintillation counting. The percent bound = (1‐Cu/Cm)×100, where Cu is the concentration of radioactivity in the ultrafiltrate and Cm is the concentration of radioactivity in the plasma before centrifugation.

In the next series the target is T1, UGT1A7 (Homo sapiens, UniProt Q9HAW7).
T1 construct: purchased BD Biosciences; host or cells: baculovirus-infected insect cells
T1 sequence (Q9HAW7 26-530): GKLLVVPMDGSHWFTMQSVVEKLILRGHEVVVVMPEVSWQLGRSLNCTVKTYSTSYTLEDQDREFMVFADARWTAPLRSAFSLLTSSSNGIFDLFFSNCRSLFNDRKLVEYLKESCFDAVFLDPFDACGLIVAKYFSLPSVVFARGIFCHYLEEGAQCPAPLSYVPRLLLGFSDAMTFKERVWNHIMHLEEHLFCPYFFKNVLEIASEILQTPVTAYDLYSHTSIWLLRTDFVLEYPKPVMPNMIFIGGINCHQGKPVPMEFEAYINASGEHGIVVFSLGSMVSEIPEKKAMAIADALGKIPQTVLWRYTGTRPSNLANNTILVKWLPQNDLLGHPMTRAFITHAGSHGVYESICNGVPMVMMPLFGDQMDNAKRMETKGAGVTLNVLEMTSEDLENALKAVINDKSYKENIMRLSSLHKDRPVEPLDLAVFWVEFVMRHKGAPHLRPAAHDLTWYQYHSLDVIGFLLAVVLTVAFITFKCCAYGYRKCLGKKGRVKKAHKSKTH
Briefly: Reaction phenotyping with recombinant human UGT enzymes: UGT1A7. The settings on record: rUGT1A7 0.25 mg protein/mL, 10 μmol/L, 60 minutes, n = 2. How it is done: Ataluren at 10 μmol/L, was incubated (n = 2) with recombinant human uridine diphosphate glucuronosyltransferase (rUGT) enzymes: rUGTs 1A1, 1A3, 1A4, 1A6, 1A7, 1A8, 1A9, 1A10, 2B4, 2B7, 2B15, and 2B17 at 0.25 mg protein/mL. Incubations were conducted in duplicate at 37°C. The incubation mixture (0.2 mL, final volume with 1% methanol) consisted of Tris‐HCl buffer (100 mmol/L, pH 7.7 at 37°C), MgCl2 (10 mmol/L), EDTA (1 mmol/L), saccharic acid 1,4‐lactone (0.1 mmol/L), and UDPGA (8 mmol/L). […] Samples were subjected to centrifugation (920 g for 10 minutes at 10°C) and the supernatant fractions were analyzed by LC‐MS/MS to quantify the formation of ataluren‐O‐1β‐acyl glucuronide and loss of ataluren. […] The ataluren acyl glucuronide formation rate after 60 minutes incubation was calculated using the amount of metabolite formed (pmol) divided by the protein amount in the incubation sample (0.05 mg) and the incubation time (60 minutes).
Quantification of ataluren loss and ataluren‐O‐1β‐acyl glucuronide formation was carried out with an LC‐MS/MS system, which consisted of two Shimadzu LC‐10ADvp pumps, a SPD10‐AVP UV/Vis detector, a Shimadzu SILHTA autosampler, a Shimadzu DGU‐14A degasser, and a Sciex API 4000 QTRAP mass spectrometer equipped with a Turbo Ionspray ionization source that operated in positive ionization mode. […]

The test system of another series is CYP2C8. Kind of series: CYP induction in primary human hepatocytes: CYP2C8. The settings on record: male, 48 h. How it is done:
Human hepatocytes isolated from three Caucasian males were transferred to 48‐well collagen‐coated plates at 0.14 × 10^6 cells/well in planting media for attachment. After attachment, planting media was replaced with sandwich media and the cells were incubated until clusters were established. […] The incubation solutions were aspirated and replaced with freshly prepared incubation solutions containing ataluren for an additional 24 hours. […] The incubation solutions were then aspirated and 150 µL of K‐H buffer containing CYP substrates were added. […] Metabolite formation in incubations with test compounds and control inhibitors was assessed with validated LC‐MS/MS methods for each of the reaction products as described in Table S2. Enzymatic activity for each CYP was calculated using the absolute amount of metabolite formed (pmol) divided by hepatocytes in the incubation (million cells) and the incubation time (minute). The relative fold induction in enzymatic activity was calculated by comparing the rate of metabolite formation for treatment groups to that of the solvent control group (reported as vehicle control%) or positive control group (reported as positive control%).

Regarding `O=C(O)c1cccc(-c2noc(-c3ccccc3F)n2)c1` [ataluren, Ataluren], the “free fraction in human plasma” value in series [1] (as measured) is reported as 0.4%. The fraction unbound at 15 min in series [1] (male, 50 to 50 000 ng/mL, mean ± SD, n = 3, read-out: percentage protein binding (converted)) was 0.004. Moreover, the ataluren loss on UGT1A7 stood at 6.2%. Moreover, the “Vehicle control %, Mean” value was found to be 93.0% in the series with CYP2C8 (4 µM) and 67.6% in the series with CYP2C8 (400 µM).
